# Laboratory results: patent US8138191B2, “Inhibitor compounds and cancer treatment methods” (Critical Outcome Technologies Inc., priority 2007, dated 2012)
# What was measured:
# [1] = system: total Akt protein in SHP-77 cells; assay: Total Akt by western blot analysis, SHP-77; assay type: cell-based, human; conditions: SHP-77, 250 nM, after 24 hrs
# Method: Cell viability was determined at 24, 48, and 96 hrs by the trypan exclusion method. Whole cell lysates were prepared using standard procedures and fifty micrograms of lysate protein was separated on SDS-PAGE gels and analyzed by western blotting.
# Cell viability was determined at 24, 48, and 96 h by the trypan exclusion method. Whole cell lysates were prepared using standard procedures and 50 μg of lysate protein was separated on SDS-PAGE gels and analyzed by western blotting.
# in vitro = conditions: human
# Method: (§1) TC7 cells were seeded at 1×10^5 cells/cm^2 on porous polycarbonate membrane in 96-well Multiscreen™ plates (Millipore). Cells were fed every 2 to 3 days and the day before the permeability assay. Permeability assays are performed with the cells at days 13-25 post-seeding. The assay directions included apical to basolateral (A-B) and basolateral to apical (B-A). The working solution for COTI-2 was prepared at 10 μM in HBSS-MES (5 mM), pH 6.5, or HBSS-HEPES (5 mM), pH 7.4, from a 1 mM DMSO stock solution. The working solution was then centrifuged and the supernatant was added to the apical or basolateral side with a final DMSO concentration of 1%. The assay was incubated for 60 or 40 min with gentle shaking at 37° C. The sampling scheme consisted of donor time zero, donor time 60 or 40 min, and receiver time 60 or 40 min. Samples were analyzed via (RP)HPLC-MS/MS using selected reaction monitoring (SRM). […] The cell monolayer integrity was confirmed by fluorescein permeability assessment (in the A-B direction at pH 7.4 on both sides with 1 h incubation) after the permeability assay with COTI-2. The cell monolayer that has a fluorescein permeability of less than 0.5×10^−6 cm/s was considered intact. The apparent permeability coefficient (Papp) of COTI-2 in the […] and the percent recovery of the compounds were calculated.
# [2] = system: TC7 (human intestinal epithelial cells); assay: in vitro
# Method: as §1
# [3] = Metabolic Stability (liver microsomes, dog, Beagle); assay type: in vitro ADME; conditions: 1.0E−06 M, 60 min
# Method: Metabolic stability was determined in human (mixed gender and pool of 50) monkey (male Cynomolgus, pool of 6 or more), dog male, beagle, pool of 4 or more) and rat (male Sprague-Dawley, pool of 100 or more) liver microsomes. […] Four reference substrates (1 μM) were tested simultaneously with COTI-2. […] Peak areas corresponding to COTI-2 were recorded by HPLC-MS/MS. Metabolic stability, expressed as percent of COTI-2 remaining, was calculated by comparing the peak area of COTI-2 at 60 min to time zero.
# CYP2E1 = CYP2E1 (Homo sapiens, UniProt P05181); assay: CYP2E1 Inhibition (HLM, chlorzoxanzone substrate)
# Chain of CYP2E1 (P05181 whole entry): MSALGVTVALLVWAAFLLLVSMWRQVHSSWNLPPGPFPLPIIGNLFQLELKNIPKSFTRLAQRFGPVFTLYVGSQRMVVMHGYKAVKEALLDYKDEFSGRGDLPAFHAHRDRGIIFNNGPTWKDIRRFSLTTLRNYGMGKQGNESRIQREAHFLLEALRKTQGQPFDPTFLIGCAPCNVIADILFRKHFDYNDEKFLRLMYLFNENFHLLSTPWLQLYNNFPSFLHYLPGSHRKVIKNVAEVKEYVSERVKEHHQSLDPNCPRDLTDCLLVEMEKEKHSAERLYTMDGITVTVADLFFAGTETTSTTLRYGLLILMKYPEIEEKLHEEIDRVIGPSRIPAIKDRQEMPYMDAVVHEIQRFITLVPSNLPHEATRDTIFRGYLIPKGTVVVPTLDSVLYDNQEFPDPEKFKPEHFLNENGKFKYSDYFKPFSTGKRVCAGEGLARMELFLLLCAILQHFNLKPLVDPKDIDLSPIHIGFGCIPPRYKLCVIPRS
# [4] = Caco-2, pH 7.4, Permeability Mean
structure (smiles),measurement,setting,value
S=C(N/N=C1/CCCc2cccnc21)N1CCN(c2ccccn2)CC1 [COTI-2],total Akt protein,[1],decreased
same,efflux ratio at 10 µM,in vitro; Caco-2,~4.5
same,Papp A→B at 10 µM,"in vitro; Caco-2, A-B permeability (Papp)",< 0.3 ×10⁻⁶ cm/s
same,recovery at 10 µM,"in vitro; Caco-2, mean recovery",22%
same,Papp A→B at 10 µM,in vitro; [4],< 0.3 ×10⁻⁶ cm/s
same,Papp B→A at 10 µM,in vitro; [4],1.4 ×10⁻⁶ cm/s
same,Pgp substrate assessment,[2]; Caco-2,not a substrate of Pgp
same,Flags,"[2]; Caco-2, pH 7.4",BLQ
same,Mean Parent Remaining,[3],5%
same,percent inhibition,"CYP2E1; CYP2E1, 10 μM",below 50%
same,% Inhibition of Control Values,"CYP2E1; CYP2E1, HLM, chlorzoxazone substrate, 1.0E−05 M",−2%
